# Read-outs that look alike come from different tables or passages of the source.
# Legend:
# [1] = system: secondary alcohol dehydrogenase; assay: Oxidation of secondary alcohols by soluble extracts (NAD+ reduction at 340 nm); assay type: biochemical, Arthrobacter sp. (CRL 60 P1) NRRL B-11,315; details: substrate of soluble extracts, pH 8.0, 100% = 22 nmoles of NAD+ reduced per minute per mg of protein
# Method: (§1) Cell suspensions of the microorganism strains identified in Table XII grown on the indicated growth substrate were disrupted with a wave energy ultrasonic oscillator Model W201 (Wave Energy System, Inc., Newton, Pa) and centrifuged at 30,000 x g for 30 min. The supernatant solution (cell extracts) was used for the oxidation of secondary alcohols. Secondary alcohol dehydrogenase activity was measured spectrophotometrically at 340 nm with oxidized nicotinamide adenine dinucleotide (NAD^+) as an electron acceptor.
# (§2) The initial reaction mixture, in a total volume of 3.0 ml, consisted of 50mM phosphate buffer of pH 8.0, 5 µ moles of NAD^+, and cell extract.
# [2] = system: alkane monooxygenase; assay: Epoxidation of alkenes and styrene by soluble extracts; assay type: biochemical, Brevibacterium sp. (CRL 56 P6Y) NRRL B-11,319
# Method: The microorganism Brevibacterium sp. […] The fermentor was inoculated with 2 liters of a culture grown in flasks.
# The cells thus grown were washed twice with 25 mM potassium phosphate buffer pH 7.0 and suspended in the same buffer solution containing 5mM MgCl2 and deoxyribonuclease (0.05 mg/ml). […] Disintegrated cell suspensions were centrifuged at 15,000 x g for 15 min. to remove unbroken cells. The supernatant solution was then centrifuged at 40,000 x g for 60 minutes and the supernatant solution therefrom was again centrifuged at 80,000 x g for 60 minutes, yielding the soluble fraction.
# Several 3-ml vials at 4°C were charged with 0.2 ml of a reaction mixture consisting of 10 µmoles potassium phosphate buffer pH 7.0, 4 µ cmoles NADH2, and the soluble enzyme fraction obtained above. The gaseous phase of the vials was evacuated by vacuum and replaced with a gas mixture of gaseous oxidation substrate and oxygen (1:1 v/v); in the case of a liquid oxidation substrate, 2 µl of substrate was added. The vials were incubated at 35 °C on a reciprocating water bath shaker at 50 oscillations per minute.
# The rate of epoxidation of alkenes and styrene was measured by injecting 1-2 µ1 samples of the reaction mixture into a gas chromatograph immediately after addition of substrate (zero time) and after 5 and 10 min. of incubation. Specific activities were expressed as […] of product formed per 10 min. per mg of protein. With each substrate, control experiments were conducted in the absence of NADH2, in the absence of oxygen, and using boiled extracts.
# [3] = system: Propylene-Oxidizing Activity of Arthrobacter sp. (CRL 60 P1) NRRL B-11,315; assay: Effect of inhibitors on propylene-oxidizing activity (propylene oxide formation) of propane-grown cell suspensions; assay type: cell-based; details: for inhibition at 1000 µM: Arthrobacter, NRRLB11, 0.25 h
# Method: (§3) The pH of the nutrient medium was adjusted to 7.0 by the addition of acid or base and 50 ml samples of the nutrient medium were charged into a plurality of 300 ml shake flasks. The shake flasks were inoculated with an innoculating loop of cells from an agar plate containing homogeneous colonies of the microorganisms on the plate (the purity of the isolates was confirmed by microscopic examination). […] In the case of growth on liquid substrates (at 0.3%, v/v), the gaseous phase of the flasks was air. The inoculated flasks were sealed air tight and were incubated on a rotary shaker at 250 rpm and at 30°C for two days until turbidity in the medium had developed.
# (§4) The cells were harvested by centrifugation at 12,000 x g. at 4 °C for 15 minutes. The cell pellet was washed twice with a 50 mM phosphate buffer at a pH of 7.0. The washed cells were then suspended in a 50mM phosphate buffer at pH 7.0.
# (§5) The gaseous phase of the vials was removed with vacuum and then was replaced with a gas mixture of the oxidative substrate (e.g. ethane) and oxygen at a 1:1 v/v ratio. If a liquid substrate was employed, 5-10 µl of substrate was placed in the vials. […] Samples (3 µl) were withdrawn periodically with a microsyringe and the products were analyzed by gas chromatography (ionization flame detector column) at a column temperature of 100°C to 180 °C and at a carrier gas flow rate of 30 or 35 ml/ min of helium. The various products were identified by retention time comparisons and co-chromatography with authentic standards. […] Protein in the cell suspensions was determined by the method described by […].
# (§6) All inhibitors were added at 1mM concentration and the cell suspensions were incubated for 15 min. at 4 °C.
# [4] = system: secondary alcohol dehydrogenase; assay: Effect of inhibitors on oxidation of 2-butanol by cell extracts (NAD+ reduction at 340 nm); assay type: biochemical, Arthrobacter sp. (CRL 60 P1) NRRL B-11,315
# Method: as §1, §2
# All inhibitors were tested at lmM concentration and incubated with the soluble extracts in the reaction mixture for 15 min at 0°C. Otherwise the procedure described above was followed.
# [5] = system: Propane-Oxidizing Activity of Arthrobacter sp. (CRL 60 P1) NRRL B-11,315; assay: Effect of inhibitors on propane-oxidizing activity (acetone production) of propane-grown cell suspensions; assay type: cell-based; details: for inhibition at 1000 µM: Arthrobacter, NRRLB11, 0.25 h
# Method: as §3, §4, §5, §6
# [6] = system: Cell-Free Particulate Fraction of Arthrobacter sp. (CRL 60 P1) NRRL B-11,315; assay: Oxidation of alkenes and alkanes by cell-free particulate P(40) fraction; assay type: biochemical
# Method: (§9) Cells were harvested during exponential growth by centrifugation at 12,000 x g for 15 min. at 4°C. Cells were washed twice with a 25 mM potassium phosphate buffer of pH 7.0 containing 5mM MgCl2 and were then suspended in the same buffer. The resulting cell suspensions at 4°C were disintegrated by a single passage through a French pressure cell (45 mPa) and centrifuged at 5,000 x g for 15 min to remove unbroken bacteria. […] The particulate fraction [P(40)] was suspended in the same buffer as described above and homogenized at 4°C.
# (§10) A 1.0 ml sample containing the particulate or soluble fraction, 10 µ moles NADH and 150 mM potassium phosphate buffer at pH 7.0 containing 3 µ moles MgCl2 was put into separate 10 ml vials at 4°C which were sealed with a rubber cap. The gaseous phase of the vials was removed by vacuum and replaced with a gas mixture of the indicated alkane or alkene as substrate and oxygen at a 1:1 v/v ratio. The vials were then incubated at 30°C on a rotary shaker at 200 rpm for 10 minutes.
# Reactions were linear during the first 15 minutes of incubation as measured by detection of product by gas chromatography.
# [7] = system: Cell-Free Particulate P(40) Fraction of Arthrobacter sp. (CRL 60 P1) NRRL B-11,315
# Method: as §9, §10
# [8] = system: Arthrobacter sp. (CRL 60 Pl) NRRL B-11,315; assay: Effect of propane on oxidation of propylene to propylene oxide by cell suspensions; assay type: cell-based; details: propane added to cell suspensions epoxidising propylene
# From the text: (§7) The following summarizes tests conducted on the optimal conditions for the production of propylene oxide from propylene using cell suspensions of propane-grown Arthrobacter sp. (CRL 60 Pl) NRRL B-11,315 as the representative microorganism strain. It will be understood that these are optimal conditions found for one particular strain and one particular substrate, and the invention is not meant to be bound by them. Conversions of propylene can still be obtained using Arthrobacter sp. (CRL 60 Pl) NRRL B-11,315 by deviating from the optimum indicated below, but with lower yields and conversions.
# The effect of propane on the oxidation of propylene to propylene oxide was studied to determine if a single enzyme system was responsible for the oxidation of both propane and propylene.
# [9] = system: Arthrobacter sp. (CRL 60 Pl) NRRL B-11,335
# Method: as §5
# Arthrobacter sp. […] Ethanol was converted to acetaldehyde (acetyl Co ~A in vivo) by primary alcohol dehydrogenase, yielding 1 mole of NADH, with subsequent oxidation of the intermediate acetyl Co ~A to carbon dioxide, yielding 3 additional moles of NADH.
# [10] = system: Arthrobacter sp. (CRL 60 Pl) NRRL B-11,315; assay: Further oxidation of added propylene oxide by viable cell suspensions; assay type: cell-based; details: 5 µ moles added to viable cell suspension, 30°C
# From the text: as §7
# (§8) To determine if the slower reaction rate after 40-60 min of incubation was due to enzymatic or non-enzymatic oxidation of propylene oxide or due to product inhibition, 5 µ moles of propylene oxide was added to viable and to heat-killed cell suspensions in the presence and absence of propylene, and incubated at 30°C.
# [11] = assay type: physicochemical
# Method: as §8
# […]. The rate of epoxidation of propylene was found not to vary markedly in the pH range from 5 to 9, with the optimum pH about 7. A 5 A mole sample of propylene oxide was added to heat-killed cell suspensions at pH 5, 7 and 9 to test for non-enzymatic degradation of propylene oxide at these pH values.
# [12] = system: Cell-Free Particulate P(40) Fraction of Arthrobacter sp. (CRL 60 P1) NRRL B-11,315; assay: Effect of inhibitors on oxidation of propane and butane by cell-free particulate P(40) fraction
# Method: as §9, §10
# [13] = substrate epoxidised by soluble fraction, NADH2 and oxygen, pH 7.0, 35°C
# [14] = inhibitor 1mM, cell suspensions incubated 15 min at 4°C, propylene oxide formation by gas chromatography, uninhibited rate 0.6 μmoles/15 min/mg of protein
# [15] = inhibitor 1mM, incubated with soluble extracts 15 min at 0°C, substrate 2-butanol, uninhibited activity 25 nmoles of NAD+ reduced per min per mg of protein
# [16] = inhibitor 1mM, cell suspensions incubated 15 min at 4°C, acetone production by gas chromatography, uninhibited rate 1.5 μ moles/hr/mg of protein
# [17] = alkene substrate, epoxide product, P(40) fraction, NADH and oxygen, pH 7.0, 30°C
molecule,measurement,setting,value
2-Butanol,Rate of Oxidation (%),[1],100%
"C=CC=C [1,3-Butadiene]",Rate of Product Formation,[2]; [13],0.044 μ mole/10 min./mg protein
"c1cnc2c(c1)ccc1cccnc12 [1,10-Phenanthroline]",inhibition at 1000 µM,[3]; [14],90%
same,Inhibition (%),[4]; [15],80%
same,inhibition at 1000 µM,[5]; [16],80%
C=CCC [1-Butene],Rate of Product Formation,[2]; pH 7,0.030 μ mole/10 min./mg protein
same,Rate of Product Formation,[6]; pH 7,0.216 μ moles/hr/mg protein
C=CCCCCC [1-Heptene],Rate of Product Formation,[2]; pH 7,0.008 μ mole/10 min./mg protein
C=CCCC [1-Pentene],Rate of Product Formation,[2]; [13],0.025 μ mole/10 min./mg protein
same,Rate of Product Formation,[6]; [17],0.195 μ moles/hr/mg protein
CCCCCC(C)O (stereo not shown) [2-Heptanol],Rate of Oxidation (%),[1],4%
CCCCC(C)O (stereo not shown) [2-Hexanol],Rate of Oxidation (%),[1],10%
CCCC(C)O (stereo not shown) [2-Pentanol],Rate of Oxidation (%),[1],12%
C=C [Ethylene],Rate of Product Formation,[2]; pH 7,0.040 μ mole/10 min./mg protein
same,Rate of Product Formation,[6]; pH 7,0.153 μ moles/hr/mg protein
NO [Hydroxylamine],Inhibition (%) Propylene-Oxidizing Activity,[3]; [14],83%
same,Inhibition (%) Propane-Oxidizing Activity,[5]; [16],70%
c1c[nH]cn1 [Imidazole],inhibition at 1000 µM,[5]; [16],80%
same,inhibition,[7],80%
C=C(C)C [Isobutene],Rate of Product Formation,[2]; [13],0.046 μ mole/10 min./mg protein
NNC(=O)c1ccncc1 [Isoniazide],inhibition at 1000 µM,[3]; [14],35%
same,inhibition at 1000 µM,[5]; [16],30%
CC(C)O [Isopropanol],Rate of Oxidation (%),[1],65%
CCN1C(=O)C=CC1=O [N-Ethylmaleimide],inhibition at 1000 µM,[3]; [14],81%
same,Inhibition (%),[4]; [15],30%
same,inhibition at 1000 µM,[5]; [16],70%
CCC [Propane],Rate of Product Formation,"[6]; alkane substrate, primary alcohol product (n-propanol, n-butanol), P(40) fraction, NADH and oxygen, pH 7.0, 30°C",0.600 μ moles/hr/mg protein
same,Rate of Product Formation,"[6]; alkane substrate, secondary alcohol product (2-propanol, 2-butanol), P(40) fraction, NADH and oxygen, pH 7.0, 30°C",0.300 μ moles/hr/mg protein
same,effect of propane on the oxidation of propylene to propylene oxide,[8],reducing the amount of propylene oxide formed
C=CC [Propylene],Rate of Product Formation,[2]; [13],0.052 μ mole/10 min./mg protein
same,Rate of Product Formation,[6]; [17],0.360 μ moles/hr/mg protein
C=Cc1ccccc1 [Styrene],Rate of Product Formation,[2]; [13],0.005 μ mole/10 min./mg protein
CC(=N)S [Thioacetamide],inhibition at 1000 µM,[3]; [14],68%
same,inhibition at 1000 µM,[5]; [16],60%
NNC(N)=S [Thiosemicarbazide],inhibition at 1000 µM,[3]; [14],12%
same,inhibition at 1000 µM,[5]; [16],10%
NC(N)=S [Thiourea],inhibition at 1000 µM,[3]; [14],12%
same,inhibition at 1000 µM,[5]; [16],10%
C/C=C\C [cis-But-2-ene],Rate of Product Formation,[2]; pH 7,0.018 μ mole/10 min./mg protein
CCO [ethanol],Epoxidation Rate (rate of propylene oxide formation),"[9]; 5 μmole ethanol, 1 hr., control 2.5",2.9 μ mole/0.5 ml.
same,Epoxidation Rate (rate of propylene oxide formation),"[9]; 5 μmole ethanol, 2 hr., control 3.8",5.6 μ mole/0.5 ml.
same,Epoxidation Rate (rate of propylene oxide formation),"[9]; 5 μmole ethanol, 3 hr., control 3.9",6.5 μ mole/0.5 ml.
same,Epoxidation Rate (rate of propylene oxide formation),"[9]; 25 μmole ethanol, 1 hr., control 2.5",2.4 μ mole/0.5 ml.
same,Epoxidation Rate (rate of propylene oxide formation),"[9]; 25 μmole ethanol, 2 hr., control 3.8",5.2 μ mole/0.5 ml.
same,Epoxidation Rate (rate of propylene oxide formation),"[9]; 25 μmole ethanol, 3 hr., control 3.9",6.5 μ mole/0.5 ml.
O=C(O)c1cc[c]([Hg+])cc1.[OH-] [p-Hydroxymercuribenzoate],Inhibition (%) Propylene-Oxidizing Activity,[3]; [14],35%
same,Inhibition (%),[4],95%
same,Inhibition (%) Propane-Oxidizing Activity,[5]; [16],35%
CC1CO1 (stereo not shown) [propylene oxide],disappearance in propylene oxide,[10],Some disappearance
same,amount of propylene oxide,"[11]; 5 µ moles added to heat-killed cell suspensions, 30°C",remained constant
same,non-enzymatic degradation of propylene oxide,"[11]; heat-killed cell suspensions at pH 5, 7 and 9, one hour of incubation",did not decrease
C/C=C/C [trans-But-2-ene],Rate of Product Formation,[2]; pH 7,0.022 μ mole/10 min./mg protein
"α,α-Bipyridyl",Inhibition (%) Propylene-Oxidizing Activity,[3],32%
same,Inhibition (%),[12],32%
same,Inhibition (%) Propane-Oxidizing Activity,[5],30%

# From patent EP0098138A2, “Microbial cells and the use thereof to produce oxidation products” (EXXON RESEARCH AND ENGINEERING COMPANY, priority 1982, dated 1984)
